Assay results: PubChem BioAssay AID256 (DTP/NCI, 2004)
“And” between values parts separate entries of the source, which are not always exact repeats. Equal entries are not always repeated. Inconclusive results and toxic doses are left out.

System: CD2F1 mice, L1210 leukemia ip, survival T/C
Test: NCI In Vivo Anticancer Drug Screen. Data for tumor model L1210 Leukemia (intraperitoneal) in CD2F1 (CDF1) mice
Details: higher = longer survival
Outline: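 Compound-dosed mice with transplantable tumor versus matched vehicle controls; endpoint ratio T/C reported.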

[1] = endpoint: mean survival time, dose: 100.0 mg/kg/injection, schedule: Q01DX001 (ip), vehicle: saline with Tween-80
[2] = endpoint: mean survival time, dose: 100.0 mg/kg/injection, schedule: Q01DX009 (ip), vehicle: saline with Tween-80
[3] = endpoint: mean survival time, dose: 100.0 mg/kg/injection, schedule: Q04DX002 (ip), vehicle: saline with Tween-80
[4] = endpoint: mean survival time, dose: 100.0 mg/kg/injection, schedule: Q04DX003 (ip), vehicle: saline with Tween-80
[5] = endpoint: mean survival time, dose: 200.0 mg/kg/injection, schedule: Q01DX001 (ip), vehicle: saline with Tween-80
[6] = endpoint: mean survival time, dose: 200.0 mg/kg/injection, schedule: Q01DX009 (ip), vehicle: saline with Tween-80
[7] = endpoint: mean survival time, dose: 200.0 mg/kg/injection, schedule: Q04DX002 (ip), vehicle: saline with Tween-80
[8] = endpoint: mean survival time, dose: 200.0 mg/kg/injection, schedule: Q04DX003 (ip), vehicle: saline with Tween-80
[9] = endpoint: mean survival time, dose: 400.0 mg/kg/injection, schedule: Q01DX001 (ip), vehicle: saline with Tween-80
[10] = endpoint: mean survival time, dose: 400.0 mg/kg/injection, schedule: Q04DX002 (ip), vehicle: saline with Tween-80

CCC(c1ccc(OC(=O)Cc2ccc(N(CCCl)CCCl)cc2)cc1)C(CC)c1ccc(OC(=O)Cc2ccc(N(CCCl)CCCl)cc2)cc1 (stereo unspecified)
T/C (endpoint: mean survival time, dose: 3.1 mg/kg/injection, schedule: Q03HX016 (ip), vehicle: saline with Tween-80): 94 % of control
T/C (endpoint: mean survival time, dose: 3.1 mg/kg/injection, schedule: Q03HX024 (ip), vehicle: saline with Tween-80): 100 % of control
T/C (endpoint: mean survival time, dose: 6.3 mg/kg/injection, schedule: Q03HX008 (ip), vehicle: saline with Tween-80): 88 % of control
T/C (endpoint: mean survival time, dose: 6.3 mg/kg/injection, schedule: Q03HX024 (ip), vehicle: saline with Tween-80): 91 % of control
T/C (endpoint: mean survival time, dose: 12.5 mg/kg/injection, schedule: Q01DX009 (ip), vehicle: saline with Tween-80): 88 % of control
T/C (endpoint: mean survival time, dose: 12.5 mg/kg/injection, schedule: Q01DX009 (sc), vehicle: saline with Tween-80): 100 % of control
T/C (endpoint: mean survival time, dose: 12.5 mg/kg/injection, schedule: Q03HX024 (ip), vehicle: saline with Tween-80): 88 % of control
T/C (endpoint: mean survival time, dose: 25.0 mg/kg/injection, schedule: Q01DX001 (ip), vehicle: saline with Tween-80): 94 % of control
T/C (endpoint: mean survival time, dose: 25.0 mg/kg/injection, schedule: Q01DX001 (oral), vehicle: saline with Tween-80): 103 % of control
T/C (endpoint: mean survival time, dose: 25.0 mg/kg/injection, schedule: Q01DX001 (sc), vehicle: saline with Tween-80): 91 % of control
T/C (endpoint: mean survival time, dose: 25.0 mg/kg/injection, schedule: Q01DX009 (ip), vehicle: saline with Tween-80): 90 % of control
T/C (endpoint: mean survival time, dose: 25.0 mg/kg/injection, schedule: Q01DX009 (oral), vehicle: saline with Tween-80): 114 % of control
T/C (endpoint: mean survival time, dose: 25.0 mg/kg/injection, schedule: Q01DX009 (sc), vehicle: saline with Tween-80): 100 % of control
T/C (endpoint: mean survival time, dose: 25.0 mg/kg/injection, schedule: Q03HX024 (ip), vehicle: saline with Tween-80): 88 % of control
T/C (endpoint: mean survival time, dose: 25.0 mg/kg/injection, schedule: Q04DX003 (ip), vehicle: saline with Tween-80): 91 % of control
T/C (endpoint: mean survival time, dose: 25.0 mg/kg/injection, schedule: Q08DX002 (ip), vehicle: saline with Tween-80): 88 % of control
T/C (endpoint: mean survival time, dose: 50.0 mg/kg/injection, schedule: Q01DX001 (oral), vehicle: saline with Tween-80): 105 % of control
T/C (endpoint: mean survival time, dose: 50.0 mg/kg/injection, schedule: Q01DX001 (sc), vehicle: saline with Tween-80): 88 % of control
T/C (endpoint: mean survival time, dose: 50.0 mg/kg/injection, schedule: Q01DX009 (ip), vehicle: saline with Tween-80): 88 % of control
T/C (endpoint: mean survival time, dose: 50.0 mg/kg/injection, schedule: Q01DX009 (oral), vehicle: saline with Tween-80): 94 % of control
T/C (endpoint: mean survival time, dose: 50.0 mg/kg/injection, schedule: Q01DX009 (sc), vehicle: saline with Tween-80): 97 % of control
T/C (endpoint: mean survival time, dose: 50.0 mg/kg/injection, schedule: Q03HX016 (ip), vehicle: saline with Tween-80): 88 % of control
T/C (endpoint: mean survival time, dose: 50.0 mg/kg/injection, schedule: Q03HX024 (ip), vehicle: saline with Tween-80): 88 % of control
T/C (endpoint: mean survival time, dose: 50.0 mg/kg/injection, schedule: Q04DX003 (ip), vehicle: saline with Tween-80): 88 % of control
T/C (endpoint: mean survival time, dose: 50.0 mg/kg/injection, schedule: Q08DX002 (ip), vehicle: saline with Tween-80): 90 % of control
T/C (endpoint: mean survival time, dose: 80.0 mg/kg/injection, schedule: Q01DX005 (ip), vehicle: saline with Tween-80): 96 % of control
T/C (endpoint: mean survival time, dose: 80.0 mg/kg/injection, schedule: Q01DX009 (ip), vehicle: saline with Tween-80): 93 % of control
T/C [1]: 90 % of control and 95 % of control
T/C (endpoint: mean survival time, dose: 100.0 mg/kg/injection, schedule: Q01DX001 (oral), vehicle: saline with Tween-80): 105 % of control
T/C (endpoint: mean survival time, dose: 100.0 mg/kg/injection, schedule: Q01DX001 (sc), vehicle: saline with Tween-80): 102 % of control
T/C [2]: 90 % of control
T/C (endpoint: mean survival time, dose: 100.0 mg/kg/injection, schedule: Q01DX009 (oral), vehicle: saline with Tween-80): 101 % of control
T/C (endpoint: mean survival time, dose: 100.0 mg/kg/injection, schedule: Q01DX009 (sc), vehicle: saline with Tween-80): 100 % of control
T/C [3]: 101 % of control
T/C [4]: 90 % of control
T/C (endpoint: mean survival time, dose: 100.0 mg/kg/injection, schedule: Q08DX002 (ip), vehicle: saline with Tween-80): 90 % of control
T/C (endpoint: mean survival time, dose: 120.0 mg/kg/injection, schedule: Q01DX005 (ip), vehicle: saline with Tween-80): 96 % of control
T/C (endpoint: mean survival time, dose: 120.0 mg/kg/injection, schedule: Q01DX009 (ip), vehicle: saline with Tween-80): 93 % of control
T/C (endpoint: mean survival time, dose: 180.0 mg/kg/injection, schedule: Q01DX005 (ip), vehicle: saline with Tween-80): 92 % of control
T/C (endpoint: mean survival time, dose: 180.0 mg/kg/injection, schedule: Q01DX009 (ip), vehicle: saline with Tween-80): 92 % of control
T/C [5]: 90 % of control
T/C (endpoint: mean survival time, dose: 200.0 mg/kg/injection, schedule: Q01DX001 (oral), vehicle: saline with Tween-80): 102 % of control
T/C (endpoint: mean survival time, dose: 200.0 mg/kg/injection, schedule: Q01DX001 (sc), vehicle: saline with Tween-80): 97 % of control
T/C [6]: 88 % of control
T/C (endpoint: mean survival time, dose: 200.0 mg/kg/injection, schedule: Q01DX009 (oral), vehicle: saline with Tween-80): 100 % of control
T/C (endpoint: mean survival time, dose: 200.0 mg/kg/injection, schedule: Q01DX009 (sc), vehicle: saline with Tween-80): 97 % of control
T/C [7]: 93 % of control
T/C [8]: 90 % of control
T/C (endpoint: mean survival time, dose: 200.0 mg/kg/injection, schedule: Q08DX002 (ip), vehicle: saline with Tween-80): 87 % of control
T/C (endpoint: mean survival time, dose: 270.0 mg/kg/injection, schedule: Q01DX005 (ip), vehicle: saline with Tween-80): 96 % of control
T/C (endpoint: mean survival time, dose: 270.0 mg/kg/injection, schedule: Q01DX009 (ip), vehicle: saline with Tween-80): 90 % of control
T/C [9]: 90 % of control
T/C (endpoint: mean survival time, dose: 400.0 mg/kg/injection, schedule: Q01DX001 (oral), vehicle: saline with Tween-80): 103 % of control
T/C (endpoint: mean survival time, dose: 400.0 mg/kg/injection, schedule: Q01DX001 (sc), vehicle: saline with Tween-80): 97 % of control
T/C (endpoint: mean survival time, dose: 400.0 mg/kg/injection, schedule: Q01DX009 (oral), vehicle: saline with Tween-80): 96 % of control
T/C [10]: 93 % of control
T/C (endpoint: mean survival time, dose: 400.0 mg/kg/injection, schedule: Q08DX002 (ip), vehicle: saline with Tween-80): 90 % of control
T/C (endpoint: mean survival time, dose: 405.0 mg/kg/injection, schedule: Q01DX005 (ip), vehicle: saline with Tween-80): 93 % of control
T/C (endpoint: mean survival time, dose: 405.0 mg/kg/injection, schedule: Q01DX009 (ip), vehicle: saline with Tween-80): 92 % of control
T/C (endpoint: mean survival time, dose: 800.0 mg/kg/injection, schedule: Q01DX001 (ip), vehicle: saline with Tween-80): 88 % of control and 90 % of control
T/C (endpoint: mean survival time, dose: 800.0 mg/kg/injection, schedule: Q01DX001 (oral), vehicle: saline with Tween-80): 97 % of control
T/C (endpoint: mean survival time, dose: 800.0 mg/kg/injection, schedule: Q01DX001 (sc), vehicle: saline with Tween-80): 90 % of control

NC(=O)c1ccc[n+](CCN(CCCl)c2ccc3ccccc3c2)c1
T/C (endpoint: mean survival time, dose: 1.25 mg/kg/injection, schedule: Q01DX009 (ip), vehicle: Klucel (hydroxypropylcellulose) (HPC)): 104 % of control
T/C (endpoint: mean survival time, dose: 2.5 mg/kg/injection, schedule: Q01DX009 (ip), vehicle: Klucel (hydroxypropylcellulose) (HPC)): 107 % of control
T/C (endpoint: mean survival time, dose: 5.0 mg/kg/injection, schedule: Q01DX009 (ip), vehicle: Klucel (hydroxypropylcellulose) (HPC)): 102 % of control

O=Cc1cc(Cl)ccc1O
T/C [2]: 108 % of control
T/C [4]: 95 % of control
T/C [6]: 102 % of control
T/C [8]: 95 % of control

C/C=C\C1OC1(C)c1cc(=O)c2c(C)cc3c(c2o1)C(=O)c1c(O)c(C2CC(C)(N(C)C)C(OC(C)=O)C(C)O2)cc(C2CC(N(C)C)C(O)C(C)O2)c1C3=O (stereo unspecified)
T/C (endpoint: mean survival time, dose: 0.35 mg/kg/injection, schedule: Q04DX003 (ip), vehicle: saline with Tween-80): 102 % of control
T/C (endpoint: median survival time, dose: 0.22 mg/kg/injection, schedule: Q01DX005 (ip), vehicle: saline + alcohol): 124 % of control
T/C (endpoint: median survival time, dose: 0.25 mg/kg/injection, schedule: Q01DX005 (ip), vehicle: saline + alcohol): 120 % of control
T/C (endpoint: median survival time, dose: 0.36 mg/kg/injection, schedule: Q01DX005 (ip), vehicle: saline + alcohol): 120 % of control
T/C (endpoint: median survival time, dose: 1.0 mg/kg/injection, schedule: Q01DX005 (ip), vehicle: saline + alcohol): 120 % of control
T/C (endpoint: median survival time, dose: 2.78 mg/kg/injection, schedule: Q01DX005 (ip), vehicle: saline + alcohol): 172 % of control

CCOC(=O)c1c[nH]c([O-])c1[N+]#N
T/C [1]: 94 % of control
T/C [3]: 100 % of control
T/C [5]: 96 % of control
T/C [7]: 107 % of control
T/C [9]: 91 % of control
T/C [10]: 103 % of control
